For assay [1], the system named is A2780 ovarian cells. Description: A2780 ovarian cell proliferation assay in lipid reduced medium, without palmitate (MTT). Type of assay: cell-based. The settings on record: Homo sapiens, A2780, 96 h; read-out: pIC50 A2780 Ovarian Cell, Without Palmitate (converted).
Assay [2] deals with PC-3M-Luc-C6 prostate cells. Briefly: In vitro PC-3M-Luc-C6 prostate cell proliferation assay in lipid reduced medium. Type of assay: cell-based. The settings on record: 96 h, read-out: pIC50 PC-3M-Luc-C6 prostate cell (converted).
Assay [3] has as its system A2780 ovarian cells. Briefly: A2780 ovarian cell proliferation assay in lipid reduced medium, with palmitate (MTT). It is filed as cell-based. The settings on record: Homo sapiens, A2780, 96 h; read-out: pIC50 A2780 Ovarian Cell, With Palmitate (converted). In a few lines:
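In this palmitate-supplemented format, compound dilutions (30 μM down to 0.01 μM) are added to cells in lipid-reduced serum with 25 μM palmitate, 0.2% fatty-acid-free BSA and 0.25% ethanol. After four days (96 h) MTT absorbance at 544 nm is recorded and fitted by minimum sum of squares.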

Assay [4] deals with LNCaP-Vancouver prostate cells. Description: In vitro LNCaP Vancouver prostate cell proliferation assay in lipid reduced medium. It is filed as cell-based. The settings on record: read-out: pIC50 LNCaP_Vancouver prostate cell (converted).
In assay [5] the target is Fatty Acid Synthase Keto-reductase Domain (FASN KR) (Homo sapiens, UniProt P49327). Briefly: Fatty Acid Synthase keto-reductase domain (FASN KR) inhibition, NADPH oxidation at 340 nm.
Fatty Acid Synthase Keto-reductase Domain (FASN KR), sequence (P49327 whole entry, the tested form may be a part): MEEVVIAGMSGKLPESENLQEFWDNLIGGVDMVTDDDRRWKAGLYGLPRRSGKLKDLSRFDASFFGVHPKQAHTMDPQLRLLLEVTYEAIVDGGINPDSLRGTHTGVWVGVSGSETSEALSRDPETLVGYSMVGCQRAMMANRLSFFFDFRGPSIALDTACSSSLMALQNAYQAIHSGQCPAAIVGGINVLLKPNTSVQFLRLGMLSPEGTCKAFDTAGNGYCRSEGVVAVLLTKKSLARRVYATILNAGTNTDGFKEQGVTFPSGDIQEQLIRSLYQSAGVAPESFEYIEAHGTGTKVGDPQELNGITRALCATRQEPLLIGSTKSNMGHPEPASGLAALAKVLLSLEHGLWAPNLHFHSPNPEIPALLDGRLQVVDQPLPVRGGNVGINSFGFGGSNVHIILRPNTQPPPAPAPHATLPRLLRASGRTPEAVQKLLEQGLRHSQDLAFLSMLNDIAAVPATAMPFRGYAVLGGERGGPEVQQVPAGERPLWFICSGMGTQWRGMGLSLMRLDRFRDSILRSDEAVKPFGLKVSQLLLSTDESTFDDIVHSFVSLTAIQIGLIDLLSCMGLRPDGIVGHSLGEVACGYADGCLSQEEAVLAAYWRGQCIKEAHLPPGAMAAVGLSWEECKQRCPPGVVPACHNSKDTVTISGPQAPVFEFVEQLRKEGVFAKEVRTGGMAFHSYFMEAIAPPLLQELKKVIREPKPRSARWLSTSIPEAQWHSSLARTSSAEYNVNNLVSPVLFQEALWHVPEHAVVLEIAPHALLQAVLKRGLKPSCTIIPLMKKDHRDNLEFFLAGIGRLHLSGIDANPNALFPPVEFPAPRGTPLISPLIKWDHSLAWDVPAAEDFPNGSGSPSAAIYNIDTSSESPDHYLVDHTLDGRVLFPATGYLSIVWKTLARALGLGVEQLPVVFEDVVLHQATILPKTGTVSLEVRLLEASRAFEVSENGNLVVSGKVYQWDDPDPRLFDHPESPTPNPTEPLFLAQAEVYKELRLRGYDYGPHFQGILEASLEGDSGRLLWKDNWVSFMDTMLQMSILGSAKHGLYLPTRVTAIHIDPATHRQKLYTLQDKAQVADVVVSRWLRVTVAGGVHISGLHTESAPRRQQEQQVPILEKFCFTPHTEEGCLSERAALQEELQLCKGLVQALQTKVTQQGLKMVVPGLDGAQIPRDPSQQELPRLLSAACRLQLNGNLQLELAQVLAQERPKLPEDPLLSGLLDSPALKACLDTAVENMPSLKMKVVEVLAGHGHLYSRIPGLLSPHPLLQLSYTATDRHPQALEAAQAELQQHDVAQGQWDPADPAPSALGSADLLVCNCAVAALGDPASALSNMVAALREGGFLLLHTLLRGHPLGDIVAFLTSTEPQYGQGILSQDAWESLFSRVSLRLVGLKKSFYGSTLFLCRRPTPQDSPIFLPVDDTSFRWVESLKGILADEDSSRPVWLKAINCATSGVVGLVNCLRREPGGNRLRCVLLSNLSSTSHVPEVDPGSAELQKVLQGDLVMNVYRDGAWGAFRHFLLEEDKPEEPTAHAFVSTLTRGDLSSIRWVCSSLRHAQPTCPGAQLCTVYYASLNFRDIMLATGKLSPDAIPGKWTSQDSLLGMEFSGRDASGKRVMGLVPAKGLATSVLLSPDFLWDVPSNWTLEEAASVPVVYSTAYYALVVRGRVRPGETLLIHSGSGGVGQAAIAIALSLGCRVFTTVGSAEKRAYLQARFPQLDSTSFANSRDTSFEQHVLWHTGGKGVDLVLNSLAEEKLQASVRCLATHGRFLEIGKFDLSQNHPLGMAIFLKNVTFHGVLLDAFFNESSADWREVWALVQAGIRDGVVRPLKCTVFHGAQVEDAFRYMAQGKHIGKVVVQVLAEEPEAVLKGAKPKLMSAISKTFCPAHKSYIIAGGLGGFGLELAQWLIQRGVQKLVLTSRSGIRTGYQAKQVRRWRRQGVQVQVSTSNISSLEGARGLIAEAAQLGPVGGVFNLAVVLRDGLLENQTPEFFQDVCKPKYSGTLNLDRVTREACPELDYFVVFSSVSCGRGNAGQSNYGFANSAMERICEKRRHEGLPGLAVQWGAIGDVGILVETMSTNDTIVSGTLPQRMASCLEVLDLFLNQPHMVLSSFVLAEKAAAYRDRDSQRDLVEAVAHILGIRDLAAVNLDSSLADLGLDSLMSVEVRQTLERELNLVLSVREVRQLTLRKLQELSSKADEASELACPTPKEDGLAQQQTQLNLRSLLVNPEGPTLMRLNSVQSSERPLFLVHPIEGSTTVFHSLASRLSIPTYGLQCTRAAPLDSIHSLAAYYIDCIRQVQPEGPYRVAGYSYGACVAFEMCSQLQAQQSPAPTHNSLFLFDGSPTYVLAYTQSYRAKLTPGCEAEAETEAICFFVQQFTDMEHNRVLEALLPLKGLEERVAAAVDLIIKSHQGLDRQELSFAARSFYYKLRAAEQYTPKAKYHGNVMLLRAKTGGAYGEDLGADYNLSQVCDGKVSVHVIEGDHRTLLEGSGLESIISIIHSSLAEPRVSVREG
Description: After 20 minutes incubation at room temperature the plate was measured again (T2).
The decrease in absorbance was calculated as (Absorbance before incubation T1)−(Absorbance following incubation T2).
A plot of Controlmin versus test compound concentration was fitted to a 4-parameter logistic curve using a non-linear least squares regression method.
Assay [6] addresses T1, hFASN enzyme (full length) (Homo sapiens, UniProt P49327).
T1 construct: 10 μL hFASN enzyme (full length, 300 ng, purified in house); made in house
Description: Fatty Acid Synthase (FASN) inhibition scintillation proximity assay. The settings on record: for inhibition at 10 µM: read-out: Human FASN % inhibition @ 10 μM, 10 μM test compound; for IC50: read-out: Human FASN pIC50 (converted). Type of assay: biochemical. In a few lines:
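Read-out relies on hydrophobic ³H-palmitate product, formed from ³H-acetyl-CoA and malonyl-CoA, binding streptavidin imaging beads, measured at 610±20 nm after at least 24 h. Full-length enzyme (300 ng) in phosphate buffer pH 7.5 with DTT; eight compound concentrations, 0.01–30 μM.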
(In general: SPA uses beads or plates that emit light when radiolabelled molecules are held near them.)

T1 sequence (P49327 whole entry): as the sequence (P49327 whole entry, the tested form may be a part) above

Usually inhibition stands for the drop in the measured response relative to a control, in per cent. As for `O=C(C1CC1)N1CC(CN2C(=O)C3(CCOCC3)N=C2c2ccc(-c3ccc4cccnc4c3)cc2)C1` [compound 698, 3-{[1-(Cyclopropylcarbonyl)azetidin-3-yl]methyl}-2-(4-quinolin-7-ylphenyl)-8-oxa-1,3-diazaspiro[4.5]dec-1-en-4-one], the IC50 was 380 nM in assay [1]; 575 nM in assay [2]; > 10 µM in assay [3]; 2.63 µM in assay [4]; 457 nM in assay [5]; 251 nM in assay [6]. Besides, the inhibition at 10 µM in assay [6] was 92%.

With `O=C([C@H]1CCCO1)N1CC(CN2C(=O)C3(CCOCC3)N=C2c2ccc(-c3ccc4cccnc4c3)cc2)C1` [compound 700, 2-(4-Quinolin-7-ylphenyl)-3-({1-[(2R)-tetrahydro-furan-2-ylcarbonyl]azetidin-3-yl}methyl)-8-oxa-1,3-diazaspiro[4.5]dec-1-en-4-one], the IC50 in assay [1] was 468 nM; in assay [2], 1000 nM; in assay [3], > 10 µM; in assay [4] it was 3.39 µM; in assay [5] it was 832 nM; in assay [6], 240 nM. The inhibition at 10 µM in assay [6] worked out at 94%.

For the compound `O=C(N1CCCC1)N1CC(CN2C(=O)C3(CCOCC3)N=C2c2ccc(-c3ccc4cccnc4c3)cc2)C1` [compound 701, 3-{[1-(Pyrrolidin-1-ylcarbonyl)azetidin-3-yl]methyl}-2-(4-quinolin-7-ylphenyl)-8-oxa-1,3-diazaspiro[4.5]dec-1-en-4-one], the IC50 in assay [1] is 891 nM; in assay [2], 1260 nM; in assay [3], > 10 µM; in assay [4], 4.57 µM; in assay [5], 3890 nM; in assay [6], 479 nM. Moreover, the inhibition at 10 µM in assay [6] worked out at 95%.

`O=C(C1CC1)N1CC(CN2C(=O)C3(CCOC3)N=C2c2ccc(-c3ccc4cccnc4c3)cc2)C1` (centres unmarked) [compound 714, 3-{[1-(Cycloprppylcarbonyl)azetidin-3-yl]methyl}-2-(4-quinolin-7-ylphenyl)-7-oxa-1,3-diazaspiro[4.4]non-1-en-4-one]: the IC50 in assay [1] was 933 nM; in assay [2] it was 794 nM; in assay [3], > 10 µM; in assay [4], 5.25 µM; in assay [5], 1510 nM; in assay [6], 363 nM. Besides, the inhibition at 10 µM in assay [6] stood at 89%.

Take `O=C(N1CCCC1)N1CC(CN2C(=O)C3(CCOC3)N=C2c2ccc(-c3ccc4cccnc4c3)cc2)C1` (centres unmarked) [compound 717, 3-{[1-(Pyrrolidin-1-ylcarbonyl)azetidin-3-yl]methyl}-2-(4-quinolin-7-ylphenyl)-7-oxa-1,3-diazaspiro[4.4]non-1-en-4-one]: the IC50 is 1620 nM in assay [1]; 1700 nM in assay [2]; > 10 µM in assay [3]; 5.01 µM in assay [4]; 2000 nM in assay [5]; 676 nM in assay [6]. For the same compound, the inhibition at 10 µM in assay [6] worked out at 87%.

Turning to `COC(=O)N1CC2(C1)N=C(c1ccc(-c3ccc4cccnc4c3)cc1)N(C[C@@H]1CCN(C(=O)C(C)O)C1)C2=O` (stereo partly drawn) [compound 729, Methyl 7-{[(3R)-1-(2-hydroxypropanoyl)pyrrolidin-3-yl]methyl}-8-oxo-6-(4-quinolin-7-ylphenyl)-2,5,7-triazaspiro[3.4]oct-5-ene-2-carboxylate], the IC50 in assay [1] is 1290 nM; in assay [2], 1450 nM; in assay [3] it was > 10 µM; in assay [4] it was 8.71 µM; in assay [5], 813 nM; in assay [6] it was 309 nM. In addition, in assay [6], the inhibition at 10 µM amounted to 95%.

On to `C=CC(=O)N1CCC2(CC1)N=C(c1ccc(-c3ccc4ccoc4c3)cc1)N(C[C@@H]1CCN(C(=O)C3CC3)C1)C2=O` [compound 741, 8-Acryloyl-2-[4-(1-benzofuran-6-yl)phenyl]-3-{[(3R)-1-(cyclopropylcarbonyl)pyrrolidin-3-yl]methyl}-1,3,8-triazaspiro[4.5]dec-1-en-4-one], for which the IC50 was ~2510 nM in assay [1]; ~1620 nM in assay [2]; > 10 µM in assay [3]; 2.75 µM in assay [4]; 537 nM in assay [5]; 158 nM in assay [6]. Besides, the inhibition at 10 µM in assay [6] was 102%.

As to `Cc1sc2ccc(-c3ccc(C4=NC5(CCN(CCO)CC5)C(=O)N4C[C@@H]4CCN(C(=O)C5CC5)C4)cc3)cc2c1C` [compound 742, 3-{[(3R)-1-(Cyclopropylcarbonyl)pyrrolidin-3-yl]methyl}-2-[4-(2,3-dimethyl-1-benzothiophen-5-yl)phenyl]-8-(2-hydroxyethyl)-1,3,8-triazaspiro[4.5]dec-1-en-4-one], the IC50 was ~2510 nM in assay [1]; ~1740 nM in assay [2]; ~6.03 µM in assay [3]; ~4.47 µM in assay [4]; 355 nM in assay [5]; 191 nM in assay [6]. Besides, the inhibition at 10 µM in assay [6] was determined as 99%.

For `CS(=O)(=O)N1CCC2(CC1)N=C(c1ccc(-c3ccc4occc4c3)cc1)N(C[C@@H]1CCN(C(=O)C3CC3)C1)C2=O` [compound 746, 2-[4-(1-Benzofuran-5-yl)phenyl]-3-{[(3R)-1-(cyclopropylcarbonyl)pyrrolidin-3-yl]methyl}-8-(methylsulfonyl)-1,3,8-triazaspiro[4.5]dec-1-en-4-one], the IC50 is ~1860 nM in assay [1]; ~1660 nM in assay [2]; > 10 µM in assay [3]; ~3.89 µM in assay [4]; 1070 nM in assay [5]; 275 nM in assay [6]. For the same compound, the inhibition at 10 µM in assay [6] came out at 94%.

For the compound `COCCN1CCC2(CC1)N=C(c1ccc(-c3ccc4[nH]ccc4c3)cc1)N(C[C@@H]1CCN(C(=O)C3CC3)C1)C2=O` [compound 747, 3-{[(3R)-1-(Cyclopropylcarbonyl)pyrrolidin-3-yl]methyl}-2-[4-(1H-indol-5-yl)phenyl]-8-(2-methoxyethyl)-1,3,8-triazaspiro[4.5]dec-1-en-4-one], the IC50 in assay [1] was ~74.1 nM; in assay [2], 57.5 nM; in assay [3], > 10 µM; in assay [4], 0.631 µM; in assay [5] it was 129 nM; in assay [6] it was 85.1 nM. The inhibition at 10 µM in assay [6] amounted to 96%.

With `COCCN1CCC2(CC1)N=C(c1ccc(-c3ccc4[nH]ncc4c3)cc1)N(C[C@@H]1CCN(C(=O)C3CC3)C1)C2=O` [compound 748, 3-{[(3R)-1-(Cyclopropylcarbonyl)pyrrolidin-3-yl]methyl}-2-[4-(1H-indazxol-5-yl)phenyl]-8-(2-methoxyethyl)-1,3,8-trisazaspiro[4.5]dec-1-en-4-one], the IC50 was ~224 nM in assay [1]; 575 nM in assay [2]; > 10 µM in assay [3]; 3.02 µM in assay [4]; 525 nM in assay [5]; 355 nM in assay [6]. Besides, the inhibition at 10 µM in assay [6] worked out at 99%.

In the case of `COCCN1CCC2(CC1)N=C(c1ccc(-c3ccc4c(cnn4C)c3)cc1)N(C[C@@H]1CCN(C(=O)C3CC3)C1)C2=O` [compound 750, 3-{[(3R)-1-(Cyclopropylcarbonyl)pyrrolidin-3-yl]methyl}-8-(2-methoxyethyl)-2-[4-(1-methyl-1H-indazol-5-yl)phenyl]-1,3,8-triazaspiro[4.5]dec-1-en-4-one], the IC50 in assay [1] was 676 nM; in assay [2], 589 nM; in assay [3], > 10 µM; in assay [4] it was 3.16 µM; in assay [5] it was 1150 nM; in assay [6], 309 nM. In addition, the inhibition at 10 µM in assay [6] was 94%.

Take `Cn1ncc2cc(-c3ccc(C4=NC5(CCN(C(=O)C(F)(F)F)CC5)C(=O)N4C[C@@H]4CCN(C(=O)C5CC5)C4)cc3)ccc21` [compound 752, 3-{[(3R)-1-(Cyclopropylcarbonyl)pyrrolidin-3-yl]methyl}-2-[4-(1-methyl-1H-indazol-5-yl)phenyl]-8-(trifluoroacetyl)-1,3,8-triazaspiro[4.5]dec-1-en-4-one]: the IC50 was 1620 nM in assay [1]; 1910 nM in assay [2]; > 10 µM in assay [3]; 3.98 µM in assay [4]; 1050 nM in assay [5]; 776 nM in assay [6]. Moreover, the inhibition at 10 µM in assay [6] was found to be 91%.

As to `CS(=O)(=O)N1CCC2(CC1)N=C(c1ccc(-c3ccc4[nH]ccc4c3)cc1)N(CC1CN(C(=O)C3CC3)C1)C2=O` [compound 762, 3-{[1-(Cyclopropylcarbonyl)azetidin-3-yl]methyl}-2-[4-(1H-indol-5-yl)phenyl]-8-(methylsulfonyl)-1,3,8-triazaspiro[4.5]dec-1-en-4-one], the IC50 is ~977 nM in assay [1]; 813 nM in assay [2]; > 10 µM in assay [3]; 3.89 µM in assay [4]; 759 nM in assay [5]; 316 nM in assay [6]. For the same compound, in assay [6], the inhibition at 10 µM was found to be 95%.

These data come from patent US10077261B2, “Imidazolin-5-one derivative useful as FASN inhibitors for the treatment of cancer” (Janssen Pharmaceutica NV, priority 2012, dated 2018).
